Patent US20260103474A1, “NOVEL COMPOUNDS FOR THE DIAGNOSIS OF TDP-43 PROTEINOPATHIES” (AC IMMUNE SA, priority 2022, published 2026)

What was measured:
[1] = biological target: T1, Human brain derived TDP-43 aggregates (Homo sapiens, UniProt Q13148); experiment: Micro-radiobinding competition assay for binding affinity to TDP-43; details: for Ki: 0.24 nM to 2 μM vs tritiated reference ligand at 40 nM; for Human brain derived TDP-43 aggregates Mean % competition at 250 nM: non-radiolabeled compound at 250 nM vs tritiated reference ligand at 40 nM; for Human brain derived TDP-43 aggregates Mean % competition at 250 nM / Human brain derived TDP-43 aggregates Mean % competition at 2 μM: FTD sarkosyl-insoluble brain extracts; for Human brain derived TDP-43 aggregates Mean % competition at 2 μM: non-radiolabeled compound at 2 μM vs tritiated reference ligand at 40 nM
T1 construct: Human FTD sarkosyl-insoluble brain extracts were spotted onto microarray slides
Procedure: Human brain extracts were prepared as described in Laferriere et al., 2019, Nature Neurosc. A sample of brain tissue (frontal or temporal cortex) was homogenized at 1:4 (w/v) ratio in the homogenization-solubilization (HS) buffer at 4° C. using tissue homogenizer (Precellys) with CKmix homogenization tubes. The following sequence was used for homogenization: 3 cycles of 30 seconds at 5000 rpm (with 15 seconds pause between each cycle). Homogenized samples were aliquoted and stored at −80° C. in 1.5 mL low protein binding tubes.
Brain homogenates were thawed on ice and resuspended in HS buffer to obtain a final concentration of 2% sarkosyl, 1 unit/μL Benzonase and 1 mM MgCl2. The samples were then incubated at 37° C. under constant shaking at 600 rpm on a thermomixer for 45 minutes (min). The supernatants were collected in a new tube (sarkosyl-soluble fraction, S1). The pellet was resuspended in 1000 μL of myelin floatation buffer and centrifuged at 20,000 g for 60 min at 4° C. The supernatant was carefully removed to remove all the floating lipids. This step was repeated if all the lipids could not be removed in a single step. The pellet was subsequently washed with Phosphate-Buffered Saline (PBS) and centrifuged for 30 min at 20,000 g at 4° C. The final pellet was resuspended in 200 μL PBS and stored at −80° C. (sarkosyl-insoluble fraction). The samples were analyzed by immunoblotting in denaturing conditions.
Human FTD sarkosyl-insoluble brain extracts were spotted onto microarray slides. The slides were incubated with a tritiated reference ligand at 40 nM, and the example compounds (non-radiolabeled) at 2 μM and 250 nM. […] After incubation, slides were washed and scanned by a real-time autoradiography system (BeaQuant, ai4R). Quantification of the signal was performed by using the Beamage image analysis software (ai4R). Non-specific signal was determined with an excess of non-radiolabeled reference compound (2 μM) and specific binding was calculated by subtracting the non-specific signal from the total signal. Competition was calculated as percent, where 0% was defined as the specific binding in the presence of vehicle and 100% as the values obtained in the presence of excess of the non-radiolabeled reference compound. Ki values were calculated in GraphPad Prism8 by applying a nonlinear regression curve fit using a one site, specific binding model. Measurements were performed with at least two technical replicates in the two-concentration competition experiment and with one technical replicate in the experiments including a range of concentrations. For compounds tested in more than one experiment, the mean of the replicates or Ki values in independent experiments is reported.

TDP-43 aggregates = TDP-43 aggregates (Homo sapiens, UniProt Q13148); experiment: Micro-autoradiography staining in brain sections from patients with FTD; assay type: binding; design: from tissue; host or cells: frozen post-mortem human brain sections (FTLD-TDP type A and type B; non-demented controls in the classical autoradiography); details: 120 nM
Procedure: All tissues were collected from donors for or from whom a written informed consent for a brain autopsy and the use of the material and clinical information for research purposes had been obtained by the respective brain banks. All samples were anonymized and coded. Frozen brain tissue blocks with confirmed TDP-43 pathology upon autopsy were processed using a cryotome to generate sections of 10 μm in thickness and mounted on glass slides. Sections were kept at −80° C. until use.
Brain sections were immunostained using a commercially available antibody, specific for phosphorylated serine at amino acid 409/410 (anti-pTDP-43 pS409/410, Biolegend, 829901). Sections were fixed for 15 minutes at 4° C. with 4% formaldehyde (Sigma, 252549) and washed three times for height minutes with 1×PBS (Dulbecco's phosphate buffered saline, Sigma D1408) at room temperature. Next, sections were saturated and permeabilized in blocking buffer (PBS, 10% normal goat serum (NGS), 0.25% Triton X-100) for one hour at room temperature and incubated overnight at 4° C. with primary antibody against pTDP-43 (diluted at 1/500 in PBS, 5% NGS, 0.25% Triton X-100). The following day, sections were washed three times for height minutes with 1×PBS before incubation with a secondary, AlexaFluor633-labeled goat-anti-rat antibody (Invitrogen, A-21094, diluted at 1/500 in PBS) for 45 minutes at room temperature. Following incubation with […] antibodies the sections were washed three times in PBS before being processed further.
For micro-autoradiography, tritiated test compound ([^3H]-Compound 1, [^3H]-Compound 9 or [^3H]-Compound 17 respectively) was incubated on the sections at 120 nM in 50 mM Tris buffer pH 7.4 for 45 minutes at room temperature. Sections were then washed as follows: once in ice-cold 50 mM Tris-HCl pH 7.4 buffer for one minute, twice in ice-cold 70% ethanol for one minute, once in ice-cold 50 mM Tris-HCl pH 7.4 buffer for one minute and finally rinsed briefly in ice-cold distilled water. Sections were subsequently dried for one hour under a stream of air and then exposed to Ilford Nuclear Emulsion Type K5 (Agar Scientific, AGP9281) for ten days at 4° C. in a light-proof slide storage box. The sections were developed by immersing them successively in the following solutions: 1.) Ilford Phenisol Developer (1:5 dilution in H2O, Agar Scientific, AGP9106) for four minutes, 2.) Ilfostop solution (1:20 dilution in H2O, Agar Scientific, AGP9104) for two minutes, 3.) Ilford Hypam Fixer (1:5 dilution in H2O, Agar Scientific, AGP9183) for four minutes and finally rinsed with H2O for 10 minutes.
For image acquisition, sections were mounted using ProLong Gold Antifade reagent (Invitrogen P36930) and imaged on a Panoramic250 Slide Scanner (3DHistech) with a 40× objective capturing brightfield and fluorescent images separately or on a Panoramic Scan II (3DHistech) with a 20× objective. The Visiopharm image analysis software suite was used to align the fluorescent image with the brightfield image.

T1 sequence (Q13148 261-414 limits assumed): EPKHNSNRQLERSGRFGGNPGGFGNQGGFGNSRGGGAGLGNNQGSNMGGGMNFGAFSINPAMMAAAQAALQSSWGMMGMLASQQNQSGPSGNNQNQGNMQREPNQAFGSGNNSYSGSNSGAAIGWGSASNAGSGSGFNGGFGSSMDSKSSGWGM
Chain of TDP-43 aggregates (Q13148 whole entry): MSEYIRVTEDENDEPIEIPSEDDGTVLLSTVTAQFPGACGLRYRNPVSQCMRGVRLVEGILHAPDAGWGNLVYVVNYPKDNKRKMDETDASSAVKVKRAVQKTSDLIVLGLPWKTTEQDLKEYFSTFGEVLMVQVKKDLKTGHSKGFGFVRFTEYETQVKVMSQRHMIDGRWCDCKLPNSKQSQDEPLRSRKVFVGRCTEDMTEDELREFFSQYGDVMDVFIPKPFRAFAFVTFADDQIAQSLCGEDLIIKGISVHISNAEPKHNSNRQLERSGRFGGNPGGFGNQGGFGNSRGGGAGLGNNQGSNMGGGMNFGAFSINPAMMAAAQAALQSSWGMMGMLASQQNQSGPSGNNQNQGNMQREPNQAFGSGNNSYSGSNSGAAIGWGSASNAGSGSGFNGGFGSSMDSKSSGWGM

Micro-autoradiography silver grain signal versus pTDP-43 immunostaining (TDP-43 aggregates; FTLD-TDP type A brain sections)	Micro-autoradiography silver grain signal versus pTDP-43 immunostaining (TDP-43 aggregates; FTLD-TDP type B brain sections)	SMILES	Ki [1] [µM]	Human brain derived TDP-43 aggregates Mean % competition at 250 nM [1] [%]	Human brain derived TDP-43 aggregates Mean % competition at 2 μM [1] [%]
		O=C1c2sc(-c3ccc(N4CCC(CO)CC4)nc3F)nc2CCN1c1cccnc1 [Compound 17, 2-(2-fluoro-6-(4-(hydroxymethyl)piperidin-1-yl)pyridin-3-yl)-5-(pyridin-3-yl)-6,7-dihydrothiazolo[5,4-c]pyridin-4(5H)-one]	0.041	73	85
colocalization with pTDP-43 aggregates	same colocalization was observed	[3H]C([3H])(O)C1CCN(c2ccc(-c3nc4c(s3)C(=O)N(c3cccnc3)CC4)c(F)n2)CC1 [[^3H]-Compound 17, 2-(2-fluoro-6-(4-(hydroxymethyl-t2)piperidin-1-yl)pyridin-3-yl)-5-(pyridin-3-yl)-6,7-dihydrothiazolo[5,4-c]pyridin-4(5H)-one]			
colocalization with pTDP-43 aggregates	same colocalization was observed	[3H]c1cncc(N2CCc3nc(-c4cc([3H])c(N5CC[C@@H](F)C5)nc4F)sc3C2=O)c1 [[^3H]-Compound 1, tritiated 2-[2-fluoro-6-[(3R)-3-fluoropyrrolidin-1-yl]-3-pyridyl]-5-(3-pyridyl)-6,7-dihydrothiazolo[5,4-c]pyridin-4-one]			
		O=C1c2sc(-c3ccc(N4CC[C@@H](F)C4)nc3F)nc2CCN1c1cccnc1 [Compound 1, 2-[2-fluoro-6-[(3R)-3-fluoropyrrolidin-1-yl]-3-pyridyl]-5-(3-pyridyl)-6,7-dihydrothiazolo[5,4-c]pyridin-4-one]	0.022	65	78
